Values joined by “and” are separate entries in the source; they are usually repeats but may differ in a detail not shown here. Identical values can stand only once.
Legend:
[1] = test system: TRD patients, 3MM biomarker signature positive or negative; assay: 3MM biomarker signature analysis of MADRS treatment effect across esketamine TRD trials; format: in vivo, human; details: for treatment effect, improvement over placebo: end of double blind treatment
Method: (§1) Samples of venous blood were obtained from patients and healthy control subjects from subject described in Example 1 and from the other clinical trials referenced herein. Serum or plasma was prepared from the samples of venous blood. Measurements of human CRP and IL-6-R were performed in serum using an MSD Sector 6000 with the kits #K151STD and K151ALC (MesoScale Discovery, Rockville, MD). Human TNFα was quantified in serum using a Simoa HD-1 analyzer with kit #143 (Quanterix, Lexington, MA). All measures were performed according to kit manufacturer's recommendations.
(§2) As used in the following biomarker assay analysis, treatment (TRT) refers to treatment with intranasal esketamine plus optionally an oral antidepressant and placebo (PBO) refers to treatment with a placebo plus optionally an oral antidepressant.
(§3) The following biomarker signatures were employed: • 3MM: Inflammatory biomarker signature with positive status defined by CRP>3 mg/L and (TNFα>[…] or sIL6R>25 ng/mL). • 2MM: Inflammatory biomarker signature with positive status defined by CRP>3 mg/L and sIL6R>25 ng/mL. • CRP: Inflammatory biomarker signature with positive status defined by CRP>3 mg/L/
(§4) The 3MM signature was tested in clinical trials for adjunctive MDD, including treatment-resistant MDD (TRD) and MDD with suicidal ideation (SUI). […] Significant was driven by Esketamine (ESK) TRD trials.

[2] = test system: MDD with suicidal ideation (SUI); assay: 3MM biomarker signature analysis in esketamine trials with suicidal ideation (SUI); format: in vivo, human
Method: as §1, §2, §3, §4

With `CN[C@]1(c2ccccc2Cl)CCCCC1=O` [esketamine, (S)-2-(2-chlorophenyl)-2-(methylamino)cyclohexanone] the “treatment effect, improvement over placebo” value ([1]; 3MM biomarker signature negative subjects) was 2 MADRS points and 2.0 MADRS points, the “treatment effect, improvement over placebo” value ([1]; 3MM biomarker signature positive subjects) was 7.8 MADRS points and the “difference between subtypes (Signature advantage)” value ([1]; 3MM positive minus negative) was 5.8 point. For the same compound, the “prediction of treatment effect by 3MM status at baseline” value [2] was “did not predict treatment effect”.
